# Measured values published in EP0025288A1, “Derivatives of monic acid, processes for their preparation, compositions containing them and their preparation” (priority 1979, dated 1981).
# What was measured:
# [1] = test system: Strep uberis SPU1; experiment: MIC, veterinary bacteria; assay type: cell-based; details: veterinary bacteria (Table 2), read-out: MIC
# [2] = test system: Staph aureus Oxford; experiment: MIC, veterinary bacteria; assay type: cell-based; details: Staphylococcus aureus, veterinary bacteria (Table 2), read-out: MIC
# [3] = test system: M dispar H225; experiment: MIC, anti-mycoplasmal, Friis' broth microtiter method; assay type: cell-based; details: read-out: in vitro MIC, BROTH
# [4] = test system: M gallisepticum S6; experiment: MIC, anti-mycoplasmal, serial dilution in Friis' agar; assay type: cell-based; details: read-out: in vitro MIC, AGAR
# [5] = test system: S typhimurium S18; experiment: MIC, veterinary bacteria; assay type: cell-based; details: veterinary bacteria (Table 2), read-out: MIC
# [6] = test system: M arthritidis ATCC 14124; experiment: MIC, anti-mycoplasmal, serial dilution in Friis' agar; assay type: cell-based; details: read-out: in vitro MIC, AGAR
# [7] = test system: M pneumoniae 427a; experiment: as above; assay type: cell-based; details: read-out: in vitro MIC, AGAR
# [8] = test system: E coli NCTC 10418; experiment: MIC, veterinary bacteria; assay type: cell-based; details: veterinary bacteria (Table 2), read-out: MIC
# [9] = test system: M suipneumoniae Str 11; experiment: MIC, anti-mycoplasmal, Friis' broth microtiter method; assay type: cell-based; details: read-out: in vitro MIC, BROTH
# [10] = test system: Staph aureus 152 (pen sens); experiment: MIC, veterinary bacteria; assay type: cell-based; details: Staphylococcus aureus, veterinary bacteria (Table 2), read-out: MIC
# [11] = Serum binding by ultrafiltration; assay type: in vitro ADME, pig; details: pig, serum, compounds at 8 mcg/ml, microbiological assay (B. subtilis ATCC 6633), read-out: % bound to pig serum (converted)
# Protocol: Serum binding was assessed by ultrafiltration of procine serum containing compounds at 8 mcg/ml, and through an Amicon CF50A ultrafiltration cone. Separation of ultrafiltrate was achieved by centrifugation.
# [12] = test system: M suipneumoniae J2206/183b; experiment: MIC, anti-mycoplasmal, Friis' broth microtiter method; assay type: cell-based; details: read-out: in vitro MIC, BROTH
# [13] = test system: Staph aureus B4 (pen resis); experiment: MIC, veterinary bacteria; assay type: cell-based; details: Staphylococcus aureus, veterinary bacteria (Table 2), read-out: MIC
# [14] = test system: Strep agalactiae SPA1; experiment: MIC, veterinary bacteria; assay type: cell-based; details: veterinary bacteria (Table 2), read-out: MIC
# [15] = test system: Bord bronchiseptica BO8; experiment: MIC, veterinary bacteria; assay type: cell-based; details: veterinary bacteria (Table 2), read-out: MIC
# [16] = test system: M alkalescens NCTC 10135; experiment: MIC, anti-mycoplasmal, serial dilution in Friis' agar; assay type: cell-based; details: read-out: in vitro MIC, AGAR
# [17] = test system: M bovis NCTC 10131; experiment: as above; assay type: cell-based; details: read-out: in vitro MIC, AGAR
# [18] = test system: M dispar NCTC 10125; experiment: MIC, anti-mycoplasmal, Friis' broth microtiter method; assay type: cell-based; details: read-out: in vitro MIC, BROTH
# [19] = test system: M bovigenitalium ATCC 14173; experiment: MIC, anti-mycoplasmal, serial dilution in Friis' agar; assay type: cell-based; details: read-out: in vitro MIC, AGAR
# [20] = test system: Bord bronchisptica BO9; experiment: MIC, veterinary bacteria; assay type: cell-based; details: veterinary bacteria (Table 2), read-out: MIC
# [21] = test system: M synoviae ATCC 25204; experiment: MIC, anti-mycoplasmal, serial dilution in Friis' agar; assay type: cell-based; details: read-out: in vitro MIC, AGAR
# [22] = test system: Strep suis (group D) SPS11; experiment: MIC, veterinary bacteria; assay type: cell-based; details: veterinary bacteria (Table 2), read-out: MIC
# [23] = test system: M hyorhinis ATCC 23234; experiment: MIC, anti-mycoplasmal, serial dilution in Friis' agar; assay type: cell-based; details: read-out: in vitro MIC, AGAR
# [24] = test system: M pneumoniae ATCC 15492; experiment: MIC, anti-mycoplasmal, Friis' broth microtiter method; assay type: cell-based; details: read-out: in vitro MIC, BROTH
# [25] = test system: Past multocida PA1; experiment: MIC, veterinary bacteria; assay type: cell-based; details: veterinary bacteria (Table 2), read-out: MIC
# [26] = test system: M hyosynoviae ATCC 25591; experiment: MIC, anti-mycoplasmal, serial dilution in Friis' agar; assay type: cell-based; details: read-out: in vitro MIC, AGAR
# [27] = test system: M fermentans MWKL4; experiment: as above; assay type: cell-based; details: read-out: in vitro MIC, AGAR
# [28] = test system: M fermentans MWKL4; experiment: MIC, anti-mycoplasmal, Friis' broth microtiter method; assay type: cell-based; details: read-out: in vitro MIC, BROTH
# [29] = test system: Past multocida PA2; experiment: MIC, veterinary bacteria; assay type: cell-based; details: veterinary bacteria (Table 2), read-out: MIC
# [30] = test system: M pneumoniae ATCC 15492; experiment: MIC, anti-mycoplasmal, serial dilution in Friis' agar; assay type: cell-based; details: read-out: in vitro MIC, AGAR
# [31] = test system: Strep dysgalaciae SPD1; experiment: MIC, veterinary bacteria; assay type: cell-based; details: veterinary bacteria (Table 2), read-out: MIC
# [32] = test system: M pulmonis JB; experiment: MIC, anti-mycoplasmal, Friis' broth microtiter method; assay type: cell-based; details: read-out: in vitro MIC, BROTH
# [33] = test system: M pulmonis JB; experiment: MIC, anti-mycoplasmal, serial dilution in Friis' agar; assay type: cell-based; details: read-out: in vitro MIC, AGAR
# [34] = test system: E coli E1; experiment: MIC, veterinary bacteria; assay type: cell-based; details: veterinary bacteria (Table 2), read-out: MIC
# [35] = test system: Past Haemolytica PA5; experiment: MIC, veterinary bacteria; assay type: cell-based; details: veterinary bacteria (Table 2), read-out: MIC
# [36] = test system: Erysipelothrix rhusiopathiae NCTC 8163; experiment: MIC, veterinary bacteria; assay type: cell-based; details: NCTC8163, veterinary bacteria (Table 2), read-out: MIC
# [37] = test system: M pneumoniae 427a; experiment: MIC, anti-mycoplasmal, Friis' broth microtiter method; assay type: cell-based; details: read-out: in vitro MIC, BROTH
# [38] = test system: S dublin S7; experiment: MIC, veterinary bacteria; assay type: cell-based; details: veterinary bacteria (Table 2), read-out: MIC
# [39] = test system: M bovis ATCC 25025; experiment: MIC, anti-mycoplasmal, serial dilution in Friis' agar; assay type: cell-based; details: read-out: in vitro MIC, AGAR
structure (smiles),measurement,setting,value
"CC(=O)CCCOC(=O)C=C(C)CC1OCC(CC2OC2C(C)C(C)O)C(O)C1O (stereo not drawn) [Example 2, 3-Acetvlpropvl Monate A]",MIC,[1],0.312 µg/mL
same,MIC,[2],1.25 µg/mL
same,MIC,[3],≤ 0.02 µg/mL
same,MIC,[4],2.5 µg/mL
same,MIC,[5],> 80 µg/mL
same,MIC,[6],2.5 µg/mL
same,MIC,[7],0.312 µg/mL
same,MIC,[8],> 80 µg/mL
same,MIC,[9],0.156 µg/mL
same,MIC,[10],1.25 µg/mL
same,fraction unbound,[11],0.76
same,MIC,[12],0.312 µg/mL
same,MIC,[13],1.25 µg/mL
same,MIC,[14],2.5 µg/mL
same,MIC,[15],40 µg/mL
same,MIC,[16],< 0.02 µg/mL
same,MIC,[17],< 0.02 µg/mL
same,MIC,[18],≤ 0.02 µg/mL
same,MIC,[19],≤ 0.02 µg/mL
same,MIC,[20],5 µg/mL
same,MIC,[21],< 0.02 µg/mL
same,MIC,[22],10 µg/mL
same,MIC,[23],0.312 µg/mL
same,MIC,[24],0.312 µg/mL
same,MIC,[25],0.312 µg/mL
same,MIC,[26],0.078 µg/mL
same,MIC,[27],≤ 0.02 µg/mL
same,MIC,[28],< 0.02 µg/mL
same,MIC,[29],0.039 µg/mL
same,MIC,[30],0.312 µg/mL
same,MIC,[31],1.25 µg/mL
same,MIC,[32],< 0.02 µg/mL
same,MIC,[33],≤ 0.02 µg/mL
same,MIC,[34],> 80 µg/mL
same,MIC,[35],5 µg/mL
same,MIC,[36],80 µg/mL
same,MIC,[37],0.625 µg/mL
same,MIC,[38],> 80 µg/mL
same,MIC,[39],< 0.02 µg/mL
